In ChEMBL document CHEMBL1148588, “Anthrax lethal factor protease inhibitors: synthesis, SAR, and structure-based 3D QSAR studies” (J Med Chem, 2006):

Molecular target: T1, Lethal factor (Bacillus anthracis, UniProt P15917)
T1 sequence (P15917 whole entry): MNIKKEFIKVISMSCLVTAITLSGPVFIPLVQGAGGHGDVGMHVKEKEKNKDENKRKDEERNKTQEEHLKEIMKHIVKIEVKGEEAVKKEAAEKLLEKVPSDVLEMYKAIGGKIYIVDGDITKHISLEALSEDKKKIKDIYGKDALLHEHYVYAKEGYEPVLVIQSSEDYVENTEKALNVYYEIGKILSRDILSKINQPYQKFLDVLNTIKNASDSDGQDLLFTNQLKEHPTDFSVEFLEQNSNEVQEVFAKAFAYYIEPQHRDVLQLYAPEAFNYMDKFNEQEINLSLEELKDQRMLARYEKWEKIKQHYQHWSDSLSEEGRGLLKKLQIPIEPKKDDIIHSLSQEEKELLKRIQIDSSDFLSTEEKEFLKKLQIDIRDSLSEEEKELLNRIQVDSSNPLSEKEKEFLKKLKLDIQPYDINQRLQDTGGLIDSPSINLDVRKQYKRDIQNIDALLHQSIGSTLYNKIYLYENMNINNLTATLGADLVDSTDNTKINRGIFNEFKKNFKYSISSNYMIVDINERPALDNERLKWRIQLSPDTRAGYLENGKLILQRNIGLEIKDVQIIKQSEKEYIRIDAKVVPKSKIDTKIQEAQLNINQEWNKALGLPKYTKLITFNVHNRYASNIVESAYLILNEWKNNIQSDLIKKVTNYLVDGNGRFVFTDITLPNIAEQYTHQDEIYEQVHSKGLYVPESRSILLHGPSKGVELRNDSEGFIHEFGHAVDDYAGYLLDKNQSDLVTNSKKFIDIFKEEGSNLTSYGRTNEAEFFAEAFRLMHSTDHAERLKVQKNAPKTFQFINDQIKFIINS
Test: Inhibitory activity against anthrax lethal factor metalloprotease

## O=C(O)CN1C(=O)S/C(=C\c2ccc(-c3ccc(Cl)cc3[N+](=O)[O-])o2)C1=O
  IC50: 0.5 µM

## O=C(O)CN1C(=O)S/C(=C\c2ccc(-c3cc(C(F)(F)F)ccc3Cl)o2)C1=O
  IC50: 5.9 µM

## CN1/C(=C/c2ccc(-c3ccc(Cl)cc3)o2)C(=O)NC1NC(=O)O (stereo not given)
  IC50: > 100 µM
  Log IC50: > -4

## O=C(O)CN1C(=O)/C(=C/c2ccc(-c3ccc(I)cc3)o2)SC1=S
  IC50: 5.6 µM
